Measurements from the NIST ThermoML archive (doi:10.1021/je0501890).
± gives the expanded uncertainty stated by the source.

Conditions: 298.15 K; 101.33 kPa; Liquid

Compound | mass density [kg/m3] | viscosity [mPa·s]
ClC(Cl)C(Cl)Cl [1,1,2,2-tetrachloroethane] | 1586.65 ± 1.6 | 1.431 ± 0.019
CC(Cl)(Cl)Cl [1,1,1-trichloroethane] | 1329.55 ± 1.1 | 0.789 ± 0.011
ClC=C(Cl)Cl [trichloroethene] | 1455.65 ± 1.3 | 0.536 ± 0.008
ClCCCl [1,2-dichloroethane] | 1245.64 ± 0.92 | 0.776 ± 0.011
CCCCCCCO [heptan-1-ol] | 818.48 ± 0.68 | 5.818 ± 0.079
ClC(Cl)=C(Cl)Cl [tetrachloroethene] | 1613.2 ± 1.6 | 0.839 ± 0.012
